# According to patent US12173291B2, “Unnatural base pair compositions and methods of use” (THE SCRIPPS RESEARCH INSTITUTE, priority 2017, dated 2024):
# Key:
# E. coli BL21(DE3) SSO = assay: Growth of chromosomal UBP integrants with or without dNaMTP and dTPT3TP (doubling time); type: cell-based; settings: ΔrecA-Opt and Pol II+ΔrecA integrants, dNaMTP and dTPT3TP provided together in media
# Protocol: Mid-log phase cells WT-Opt, ΔrecA-Opt, and Pol II^+ΔrecA-Opt SSOs and their corresponding chromosomal UBP integrants (described above) were prepared using the following procedure. Saturated overnight cultures were prepared by inoculation of 2×YT containing chloramphenicol (5 μg/mL), dTPT3TP (37.5 μM), dNaMTP (150 μM), and KPi (50 mM, pH 7) from glycerol stock stabs and overnight growth (approximately 14 h) at 37° C. at 230 RPM. These cells were diluted to 0.03 OD600 in 500 μL 2×YT containing chloramphenicol (5 μg/mL), dTPT3TP (37.5 μM), dNaMTP (150 μM), and KPi (50 mM, pH 7) and grown at 37° C. at 230 RPM. Growth was monitored by OD600. Once cells reached mid-log phase (0.3-0.5 OD600), they were diluted to 0.013 OD600 in 500 μL 2×YT containing chloramphenicol (5 μg/mL), dTPT3TP (37.5 μM), dNaMTP (150 μM), and KPi (50 mM, pH 7) or 2×YT containing chloramphenicol (5 μg/mL) and KPi (50 mM, pH 7) in a 48-well plate and grown at 37° C. at 230 RPM. OD600 was measured every 30 min. This procedure was performed in triplicate for each strain starting from inoculation of overnight cultures.
# OD600 data from each experiment was analyzed to obtain a theoretical cell doubling time (FIG. 2B and FIGS. 8A-8B). […]
# Where ODi is the OD600 at time (t), OD0 is minimum OD600 value for a given data set, and CGrowth is the growth constant. […] Doubling times (DT) were calculated using the following equation: […]
# OneTaq DNA Polymerase = assay: PCR amplification of long DNAs (overlap assembly PCR); type: biochemical; settings: presence of dTPT3TP in PCR
# Protocol: The UBP knock-in cassette for the arsB locus (FIGS. 7A-7C) was produced through overlapping PCR of a 150-bp dsDNA containing a UBP and the kanamycin resistance gene of pKD13. The 150 bp DNA was produced with a 50-μL PCR using the same reaction solution conditions as above and the following temperature regime (time in mm:ss): [98° C. 02:00|5×(98° C. 00:10|50° C. 00:10|68° C. 04:00)|15×(98° C. 00:10|58° C. 00:10|68° C. 04:00)]. The kanamycin resistance gene amplicon was produced through PCR amplification off pKD13 using Q5 DNA polymerase as per manufacturer recommendations. The amplification of long DNAs (approximately 200 bp or longer) is inhibited by the presence of dTPT3TP. Therefore, the overlap assembly PCR of the UBP containing amplicon and kanamycin resistance gene amplicon was performed on large-scale (2 mL of reaction mixture split into 40 individual 50-μL reactions) with the following solution conditions: UBP containing amplicon (0.02 ng/μL), kanamycin resistance gene amplicon (0.02 ng/μL), primers (1 μM), dTPT3TP (5 μM), dNaMTP (100 μM), dNTPs (200 μM), MgSO4 (1.2 mM), OneTaq DNA Polymerase (0.025 U/μL), and OneTaq Standard Reaction Buffer (1 x). The reactions were subjected to the following temperature regime (time in mm:ss): [98° C. 02:00|5×(98° C. 00:10|50° C. 00:10|68° C. 04:00)|15×(98° C. 00:10|58° C. 00:10|68° C. 04:00)]. […]
structure (smiles),measurement,setting,value
"COc1cc2ccccc2cc1[C@H]1C[C@H](O)[C@@H](COP(=O)(O)OP(=O)(O)OP(=O)(O)O)O1 [dNaMTP, triphosphate of dNaM]",Growth defect of chromosomal UBP integrants,E. coli BL21(DE3) SSO,almost entirely eliminated
O=P(O)(O)OP(=O)(O)OP(=O)(O)OC[C@H]1O[C@@H](n2ccc3ccsc3c2=S)C[C@@H]1O [dTPT3TP],Amplification of long DNAs (approximately 200 bp or longer),OneTaq DNA Polymerase,inhibited
same,Growth defect of chromosomal UBP integrants,E. coli BL21(DE3) SSO,almost entirely eliminated
